According to patent publication US20040053355A1, “Modular approach to on-line synthesis, drug discovery and biochemical transformations using immobilized enzyme reactors” (priority 2000, published 2004):

What was measured:
[1] = target: T1, dopamine beta-hydroxylase immobilized onto IAM (DBH-IAM) (Bos taurus, UniProt P15101); experiment: DBH immobilized onto IAM stationary phase (DBH-IAM), batch assay; assay type: biochemical, bovine
T1 construct: purchased
T1 sequence (P15101 1-610): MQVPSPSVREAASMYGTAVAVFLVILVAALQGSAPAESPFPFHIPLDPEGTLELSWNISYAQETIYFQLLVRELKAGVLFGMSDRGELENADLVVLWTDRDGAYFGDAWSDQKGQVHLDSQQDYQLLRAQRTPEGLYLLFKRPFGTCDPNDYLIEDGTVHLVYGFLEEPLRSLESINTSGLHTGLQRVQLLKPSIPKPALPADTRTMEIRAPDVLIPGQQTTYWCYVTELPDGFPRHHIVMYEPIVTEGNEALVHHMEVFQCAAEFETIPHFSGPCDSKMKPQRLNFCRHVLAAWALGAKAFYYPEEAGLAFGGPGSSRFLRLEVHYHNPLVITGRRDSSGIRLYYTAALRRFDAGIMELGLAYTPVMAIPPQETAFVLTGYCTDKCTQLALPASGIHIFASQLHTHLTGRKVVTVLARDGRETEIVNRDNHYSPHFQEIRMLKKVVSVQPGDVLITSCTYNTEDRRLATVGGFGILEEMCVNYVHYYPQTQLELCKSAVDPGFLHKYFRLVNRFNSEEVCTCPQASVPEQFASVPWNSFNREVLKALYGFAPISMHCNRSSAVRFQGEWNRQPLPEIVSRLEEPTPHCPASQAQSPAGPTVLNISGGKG
Description: (§1) The enzyme was assayed as follows: four different solutions were prepared A, B, C and D (final concentration). (A) 500 μL of enzyme solution (10 μg/ml); B: 275 μL sodium acetate buffer (10 mM, pH 5.5), 50 μL cupric sulphate (5 μM); C: 25 μL catalase (5 μg/ml), 50 μL ascorbic acid (10 mM), 50 μl sodium fumarate (10 mM); D: 50 μl substrate (5 mM). Solution B was added to solution A, the resulting solution was mixed for 1 min. Solution C was added and the resulting solution was mixed for an additional minute. The reaction was started with the addition of the substrate (D), after which the reaction solution was incubated for 5 min at 37° C. in a shaking bath. The reaction was stopped by the addition of 100 μl of cold hexane, the resulting mixture was centrifuged at 3000×g for 10 min and the supernatant transferred to the pre-conditioned phenylboronic acid cartridges in order to extract the product formed and the remaining substrate. Extracted samples were directly injected onto the HPLC under either chiral or achiral conditions.
The packing material was washed three times with sodium acetate buffer (0.1M, pH 5.5). The washing was carried out by adding 1 ml of buffer to the packing material, the suspension was vortexed for 1 min, centrifuged at 3000×g for 10 min and the supernatant decanted. The enzyme solution (8-10 μg in 1 ml sodium acetate buffer) was added to the packing material, the mixture was vortexed for 15 min and then placed in a shaking bath for 2 h at ambient temperature. At the end of 2 h, the suspension was centrifuged, the supernatant decanted and the packing material washed three additional times with buffer. The amount of enzyme immobilized on the packing material was determined by measuring the amount of residual enzyme in the supernatant using the BioRad Protein Assay. The difference in the absorbance reading before immobilization and the total of absorbances after immobilization determined the amount of enzyme bound on the packing material.

[2] = target: T2, DBH-Glut-P IMER (immobilized dopamine beta-hydroxylase) (Bos taurus, UniProt P15101); experiment: On-line DBH-Glut-P immobilized enzyme reactor (DBH-Glut-P IMER) HPLC system; assay type: biochemical, bovine
T2 construct: purchased
T2 sequence (P15101 1-610): T1 sequence (P15101 1-610)
From the text: (§2) DBH immobilized on the IAM or Glut-P stationary phase was packed into a 1 cm×10 mm guard (Regis Technologies). The guard was placed in a holder and the resulting column connected to a chromatographic system. THE DBH-IAM-IMER and the DBH-Glut-P-IMER was washed with sodium acetate buffer [0.1M, pH 5.5] and sodium acetate buffer [0.1M, pH 6.0], respectively. The eluent from both IMERs was collected in order to determine if any of the DBH was being washed off the columns. The Biorad assay was utilized to measure the amount of non-immobilized enzyme. When the columns were not in use they were washed with sodium acetate buffer at the respective pHs and stored at 4° C.
Pumps 2 and 3 on system 2 and 3 were stopped. 100 μl of a substrate/cofactor mixture is loaded into the injector (i) and the valve is switched to the inject position at the same time the witching valve (SV) is switched such that substrate/product are eluted from the DBH-IMERs and concentrated onto the PBA column of system 2.The second pump was started and mobile phase A was pumped through the PBA column at a flow rate of 0.1 ml/min for 30 sec in order to elute, ascorbic acid and any other by-products produced from the reaction. The pump was then switched to mobile phase B with a flow rate of 0.1 ml/min for 2 min and simultaneously SV1 was switched such that unreacted substrate and product formed were concentrated on the analytical columns of System 3. When the specific contact time elapses the SV2 is switched back to the original position and the pump 3 is started.
(§3) The enzymatic activity on the DBH-Glut-P was determined by quantification of the amount of product formed with a given substrate. The temperature of the IMER unless otherwise stated was kept at 37° C. with a column heater. Stock solutions of tyramine were prepared in water. […] The kinetic parameters were determined using standard Michaelis-Menten approach. […] The rates of reaction (Vmax) were calculated using […]mol/mg/min. Results are expressed as mean±standard error of the mean (SEM). […]

[3] = target: T3, dopamine beta-hydroxylase (DBH), non-immobilized (Bos taurus, UniProt P15101); experiment: Non-immobilized DBH activity assay, batch incubation with HPLC-fluorescence analysis; assay type: biochemical, bovine
T3 construct: purchased
T3 sequence (P15101 1-610): T1 sequence (P15101 1-610)
Description: The solutes were quantitated using fluorescence detection with excitation at λ=265 nm and no cut-off filter for emission. A flow rate of 1 ml/min and ambient temperature were used throughout the study.
Enzymatic conversions utilizing DBH require cupric sulphate, catalase, ascorbic acid and sodium fumarate. An off-line extraction method utilizing solid phase extraction cartridges containing a phenylboronic acid stationary phase was developed. The procedure consisted of the following: 1-ml cartridges were conditioned with 2 ml of methanol followed by 2 ml of sodium phosphate buffer (0.1M, pH 8.4). One ml of reaction mixture was added, the cartridge was then washed with 1 ml sodium phosphate buffer (0.1M, pH 8.4) and the substrate and product were eluted using 1 ml of 0.1N HCl. The eluate was directly injected onto the HPLC system.
as §1

[4] = substrate: COc1cc(C(O)CN)ccc1O; experiment: Non-immobilized PNMT activity assay, batch incubation with HPLC-fluorescence analysis; assay type: biochemical, bovine; conditions: other: non-immobilized PNMT; 37.0 °C
Description: A mobile phase consisting of potassium phosphate buffer (50 mM) adjusted to pH 2.0 with trifluoroacetic acid was utilized to achieve the desired chromatographic separation of the products from the substrates. The solutes were quantitated using fluorescence detection with excitation at λ=266 nm and emission at λ=380 nm. A flow rate of 0.7 ml/min and ambient temperature were used throughout the study.
(§4) The activity of phenylethanolamine N-methyltransferase was assayed as follows: [final concentration] […] The reaction was started by addition of the 50 μL substrate [1 mM]. The reaction medium was incubated for 10 min at 37° C. in a shaking bath. The resulting solution was centrifuged at 3000×g and the supernatant were directly injected onto the HPLC under the above mentioned conditions.

[5] = substrate: COc1cc(C(O)CN)ccc1O; experiment: On-line PNMT immobilized enzyme reactor (PNMT-IMER) HPLC system; assay type: biochemical, bovine; conditions: other: PNMT-IMER, 0.2 ml/min, contact time 20 min, 37° C., n = 2, pH 8.3
From the text: PNMT immobilized on the Glut-P stationary phase was packed into a lcm×10 mm guard (Regis Technologies). The guard was put into a holder and the column was placed onto the chromatographic system. The PNMT-IMER was washed with phosphate buffer [0.1M, pH 8.3]. The eluent was collected in order to determine if any of the enzyme was being washed off the column. The Biorad assay was utilized to measure the amount of non-immobilized enzyme. When the column was not in use it was washed with phosphate buffer [0.1M, pH 8.3] and stored at 4° C.
The pump on system 2 is stopped. 100 μl of a substrate/cofactor mixture is loaded into the injector (i) and the value is switched to the inject position at the same time the switching valve (SV) is switched such that the substrate/product are eluted from the PNMT-IMER and concentrated onto the analytical columns of System 2 for the specified contact time. […]
The enzymatic activity on the PNMT-IMER was determined by quantification of the amount of product formed with a given substrate. […]
Enzymatic activity was examined carrying out injections of a series of substrate/cofactor mixtures. […] The kinetic parameters were determined by drawing Lineweaver-Burke plots utilizing Microsoft Excel. Results are expressed as mean±standard error of the mean (SEM). […]

[6] = substrate: COc1cc(C(O)CN)ccc1O; experiment: PNMT immobilized on Glut-P stationary phase (PNMT-SP), batch assay; assay type: biochemical, bovine; conditions: other: PNMT-SP, Table 5; pH 8.3; 37.0 °C
Description: as §4

[7] = substrate: NCCc1ccc(O)c(O)c1; experiment: purified protein, by the assay type; conditions: 37.0 °C
[8] = substrate: NCCc1ccc(O)cc1; experiment: Non-immobilized DBH activity assay, batch incubation with HPLC-fluorescence analysis; assay type: biochemical, bovine; conditions: other: non-immobilized DBH; Lineweaver-Burke; 37.0 °C
Description: (§5) Enzymatic conversions utilizing DBH require cupric sulphate, catalase, ascorbic acid and sodium fumarate. […] The procedure consisted of the following: 1-ml cartridges were conditioned with 2 ml of methanol followed by 2 ml of sodium phosphate buffer (0.1M, pH 8.4). One ml of reaction mixture was added, the cartridge was then washed with 1 ml sodium phosphate buffer (0.1M, pH 8.4) and the substrate and product were eluted using 1 ml of 0.1N HCl. The eluate was directly injected onto the HPLC system.

[9] = substrate: O=C1O[C@H]([C@@H](O)CO)C(O)=C1O; experiment: as above; assay type: biochemical, bovine; conditions: other: non-immobilized DBH; Lineweaver-Burke; 37.0 °C
Description: as §5

[10] = substrate: NCCc1ccc(O)cc1; experiment: DBH immobilized onto IAM stationary phase (DBH-IAM), batch assay; assay type: biochemical, bovine; conditions: other: DBH-IAM; pH 5.5; 37.0 °C
[11] = substrate: NCCc1ccc(O)cc1; experiment: On-line DBH-Glut-P immobilized enzyme reactor (DBH-Glut-P IMER) HPLC system; assay type: biochemical, bovine; conditions: other: DBH-IMER (DBH-Glut-P IMER), 0.3 ml/min, contact time 10 min, 37° C.
From the text: as §2
Pumps 2 and 3 on system 2 and 3 were stopped. […]
as §3, with “substrate.” for “substrate. The temperature of the IMER unless otherwise stated was kept at 37° C. with a column heater. Stock solutions of tyramine were prepared in water.”

[12] = substrate: NCCc1ccc(O)cc1; experiment: DBH immobilized onto Glut-P stationary phase (DBH-Glut-P, DBH-Glut-P-SP), batch assay; assay type: biochemical, bovine; conditions: other: DBH-Glut-P (DBH-Glut-P-SP); 37.0 °C
Description: The enzyme was assayed as follows: four different solutions were prepared A, B, C and D (final concentration). (A) 500 μL of enzyme solution (10 μg/ml); B: 275 μL sodium acetate buffer (10 mM, pH 5.5), 50 μL cupric sulphate (5 μM); C: 25 μL catalase (5 μg/ml), 50 μL ascorbic acid (10 mM), 50 μl sodium fumarate (10 mM); D: 50 μl substrate (5 mM). Solution B was added to solution A, the resulting solution was mixed for 1 min. Solution C was added and the resulting solution was mixed for an additional minute. The reaction was started with the addition of the substrate (D), after which the reaction solution was incubated for 5 min at 37° C. in a shaking bath. […]
The packing material was washed three times with sodium acetate buffer (0.1M, pH 6). […] The enzyme solution (8-10 μg in 1 ml sodium acetate buffer] was added to the packing material, the mixture was vortexed for 2 min and then placed on a shaker/rotator for 6 h at ambient temperature. At the end of 6 h, the suspension was centrifuged, the supernatant decanted and the packing material washed three additional times with the buffer. The amount of residual enzyme was determined utilizing the same procedure as that carried out for the enzyme immobilized onto IAM.

[13] = read-out: % Control Activity DBH-IAM
[14] = read-out: % Control Activity DBH

`CCCCc1ccc(C(=O)O)nc1` [Fusaric acid, fusaric acid] was tested, and the “inhibition of DBH mediated formation of norepinephrine from dopamine” value ([1]; immobilized enzyme (DBH-IAM), concentrations as low as 10^−6M) was “approximately 50%”, the remaining activity at 0.0016 µM [1, 13] was 91% and the remaining activity at 0.0032 µM [1, 13] was 73%. For the same molecule, the remaining activity at 0.0063 µM [1, 13] was 56%, the remaining activity at 0.0125 µM [1, 13] was 51% and the remaining activity at 0.025 µM [1, 13] was 46%. For the same molecule, the remaining activity at 0.05 µM [1, 13] was 20%, the remaining activity at 0.1 µM [1, 13] was 0% and the remaining activity at 0.2 µM [1, 13] was 0%. For the same molecule, the IC50 [2] was 5.6 nM, the IC50 [3] was 7.5 nM and the “inhibition of DBH mediated formation of norepinephrine from dopamine” value ([3]; non-immobilized enzyme, concentrations as low as 10^−6M) was “approximately 50%”. For the same molecule, the remaining activity at 0.0016 µM [3, 14] was 99%, the remaining activity at 0.0032 µM [3, 14] was 84% and the remaining activity at 0.0063 µM [3, 14] was 40%. For the same molecule, the remaining activity at 0.0125 µM [3, 14] was 21%, the remaining activity at 0.025 µM [3, 14] was 19% and the remaining activity at 0.05 µM [3, 14] was 17%. For the same molecule, the remaining activity at 0.1 µM [3, 14] was 0% and the remaining activity at 0.2 µM [3, 14] was 0%.

B1: phenylethanolamine N-methyltransferase (PNMT), non-immobilized (Bos taurus) (protein)
chain: MSGTDRSQAAGAVPDSDPGLAAVSSAYQRFEPRAYLRNNYAPPRGDLSCPDGVGPWKLRCLAQTFATGEVSGRTLIDIGSGPTIYQLLSACAHFEDITMTDFLEVNRQELRLWLREEPGAFDWSVYSQHVCLIEGKGESWQEKECQLRARVKRILPIDVHRPQPLGAGGLAPLPADALVSAFCLEAVSPDLASFQRALDHITTLLRPGGHLLLIGALEESWYLAGEARLAVVPVREEEVREALVRTATRCGICARTPMPAHLQTGVDDVKGIFFTRAQKKVGV
B1 was tested, and the Km [4] was 109 µM.

B2: PNMT-IMER (immobilized phenylethanolamine N-methyltransferase) (Bos taurus) (protein)
chain: B1 chain
Molecule B2 has a Km [5] of 384 µM.

B3: PNMT-Glut-P stationary phase (PNMT-SP) (Bos taurus) (protein)
chain: B1 chain
B3 showed a Km [6] of 152 µM.

B4: dopamine beta-hydroxylase (DBH), non-immobilized (Bos taurus) (protein)
chain: T1 sequence (P15101 1-610)
notes: purchased
With B4 the Km ([7]; other: non-immobilized DBH, Lineweaver-Burke) was 5030 µM, the Km [8] was 2850 µM and the Km [9] was 620 µM. The Vmax [9] was 0.185 µmol/mg/min.

B5: dopamine beta-hydroxylase immobilized onto IAM (DBH-IAM) (Bos taurus) (protein)
chain: T1 sequence (P15101 1-610)
notes: purchased
For B5, the Km ([7]; other: DBH-IAM, pH 5.5) was 2530 µM, the Vmax ([7]; other: DBH-IAM, pH 5.5) was 0.160 µmol/mg/min and the Km [10] was 1640 µM. The Vmax [10] was 0.101 µmol/mg/min.

B6: DBH-Glut-P IMER (immobilized dopamine beta-hydroxylase) (Bos taurus) (protein)
chain: T1 sequence (P15101 1-610)
notes: purchased
Molecule B6 has a Km [11] of 2760 µM and a Vmax [11] of 0.079 µmol/mg/min.

B7: dopamine beta-hydroxylase immobilized onto Glut-P (DBH-Glut-P) (Bos taurus) (protein)
chain: T1 sequence (P15101 1-610)
notes: purchased
Work on B7 yielded a Km [12] of 1040 µM and a Vmax [12] of 0.112 µmol/mg/min.
